According to patent US20230203098A1, “HUMAN TRANSFERRIN RECEPTOR BINDING PEPTIDE” (priority 2020, published 2023):
Where two headings read alike, the source gives them in different places. One block for each compound: values may come before it. Where a SMILES comes first, the peptide text is derived from it. Bridges are numbered along the chain shown (N, C = ends). [ ]: non-standard residue; d: D form. The star is where a group is joined. X2 = O=C(O)c1cc(C(=O)*)ccc1-c1c2ccc(=O)cc-2oc2cc(O)ccc12; PEG12 = NCCOCCOCCOCCOCCOCCOCCOCCOCCOCCOCCOCCOCCC(=O)O; NMePhe(3-Cl) = CN[C@@H](Cc1cccc(Cl)c1)C(=O)O; NMeW = CN[C@@H](Cc1c[nH]c2ccccc12)C(=O)O; Lys(N3) = [N-]=[N+]=NCCCC[C@H](N)C(=O)O; NMeY = CN[C@@H](Cc1ccc(O)cc1)C(=O)O; NMeH = CN[C@@H](Cc1c[nH]cn1)C(=O)O; PEG4 = NCCOCCOCCOCCOCCC(=O)O; Dab = NCC[C@H](N)C(=O)O; Dap = NC[C@H](N)C(=O)O

Biological target: transferrin receptor (hTfR) (Homo sapiens, UniProt P02786)
Experiment: Intermolecular interaction evaluation test between transferrin receptor (hTfR) and peptide by surface plasmon resonance (SPR)
Type: binding
Experimental: For each of the various synthesized peptides, the intermolecular interaction of the peptide with the transferrin receptor (hTfR) was tested by surface plasmon resonance (SPR) according to the following method. The specific test method is as follows.
An NTA sensor chip (Global Life Sciences Technologies Japan) was inserted in a Biacore T200 (Global Life Sciences Technologies Japan) and a prime operation was performed 3 times with a running buffer: 10 mM HEPES pH 8.0 (Nacalai Tesque), 150 mM NaCl (Nacalai Tesque), 0.05% Tween 20 (Nacalai Tesque), 0.1% BSA (Sigma-Aldrich), 1.0% DMSO (FUJIFILM Wako Pure Chemical) to create an Equilibration state at a flow rate of 30 µL/min. After reacting with 350 mM EDTA solution for 60 seconds at a flow rate of 10 µL/min then reacting with 0.5 mM NiCl2 solution (Kishida Chemical) for 60 seconds at a flow rate of 10 µL/min, the NTA sensor chip was washed with 3 mM EDTA solution (Nacalai Tesque) for 60 seconds at a flow rate of 10 µL/min. After mixing 50 µL each of 60 mM EDC solution (Global Life Sciences Technologies Japan) and 650 mM NHS solution (Global Life Sciences Technologies Japan), the mixture was reacted for 420 seconds at a flow rate of 10 µL/min. By diluting with the running buffer, 150 µL of 3.2 µM hTfR solution was prepared and used for reaction for 600 seconds at a flow rate of 10 µL/min, thereby immobilizing hTfR on the NTA sensor chip. After immobilization, capping was performed by reacting with 1.0 M ethanolamine aqueous solution (Global Life Sciences Technologies Japan) for 420 seconds at a flow rate of 10 µL/min. A peptide dissolution liquid prepared to 10 mM in the DMSO solution was diluted with the running buffer to a final concentration of 10 µM so as to become the peptide dissolution liquid, then peptide solutions of 100 nM, 50 nM, 25 nM, 10 nM and 5 nM were prepared. Kinetics of the peptide to hTfR was acquired by SPR measurement using the above-mentioned samples. Single-cycle kinetics was used as a kinetic evaluation model and curve fitting was performed using Biacore T200 Evaluation Software Version 3.0 (Global Life Sciences Technologies Japan). An obtained sensorgram was subjected to curve fitting using the least-squares method, and the binding of the peptide to hTfR was evaluated by obtaining KD values. […] A chemical structure of hTfR No. 894 is as follows.
The variant peptides were synthesized according to Example 1 unless otherwise stated in Example 9 or 10. The linker-added peptides were synthesized according to Example 1, except that Fmoc-NH-SAL-PEG resin (Watanabe Chemical Industries) was used as a resin for the peptide synthesis when the linker was PEG. The peptide, to which a peptide, a fatty acid, PEG, or a conjugate thereof is added as a linker, was also synthesized according to Example 1, unless otherwise stated in Example 9 or 10.

[1] = surface plasmon resonance, peptide vs hTfR, read-out: KD value, hTfR binding by SPR (class symbol)
[2] = surface plasmon resonance, hTfR, read-out: KD value for hTfR by SPR (class symbol)

Sequence of transferrin receptor (hTfR) (P02786 whole entry): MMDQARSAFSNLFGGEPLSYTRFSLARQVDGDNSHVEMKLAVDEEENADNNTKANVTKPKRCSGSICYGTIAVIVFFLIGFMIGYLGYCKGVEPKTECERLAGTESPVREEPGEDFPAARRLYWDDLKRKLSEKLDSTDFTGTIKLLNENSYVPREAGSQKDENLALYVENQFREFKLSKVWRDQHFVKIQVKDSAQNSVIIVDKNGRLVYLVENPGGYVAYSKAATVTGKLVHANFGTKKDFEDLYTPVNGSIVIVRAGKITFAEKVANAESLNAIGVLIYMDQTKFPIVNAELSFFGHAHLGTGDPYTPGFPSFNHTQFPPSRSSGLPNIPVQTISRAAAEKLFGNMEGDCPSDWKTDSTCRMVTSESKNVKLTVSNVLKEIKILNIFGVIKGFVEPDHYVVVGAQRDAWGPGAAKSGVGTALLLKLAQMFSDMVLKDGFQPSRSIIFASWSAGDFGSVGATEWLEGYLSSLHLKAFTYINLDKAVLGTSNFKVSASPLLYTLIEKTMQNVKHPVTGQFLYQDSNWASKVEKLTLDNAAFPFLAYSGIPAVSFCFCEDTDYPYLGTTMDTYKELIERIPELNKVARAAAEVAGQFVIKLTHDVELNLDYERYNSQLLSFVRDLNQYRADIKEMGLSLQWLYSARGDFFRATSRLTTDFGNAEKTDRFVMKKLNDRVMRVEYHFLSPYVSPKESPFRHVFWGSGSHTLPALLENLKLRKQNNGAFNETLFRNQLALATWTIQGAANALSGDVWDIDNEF

Compound: CC[C@H](C)[C@@H]1NC(=O)[C@H](Cc2ccc(OCCN)cc2)NC(=O)[C@H](Cc2ccc(O)cc2)NC(=O)[C@H](CC(N)=O)NC(=O)[C@H](Cc2c[nH]c3ccccc23)N(C)C(=O)[C@H](C(C)C)NC(=O)[C@H](Cc2cccc(Cl)c2)N(C)C(=O)[C@H](C(C)C)NC(=O)[C@H](C)NC(=O)CSC[C@@H](C(N)=O)NC(=O)[C@H](Cc2ccc(O)cc2)N(C)C(=O)[C@H](Cc2ccccc2)NC(=O)[C@@H](CCCNC(=N)N)NC(=O)[C@H](CCCNC(=N)N)NC(=O)[C@H]([C@@H](C)CC)NC1=O [compound 321]
Kd [1]: 1 to 100 nM

Compound: CC[C@H](C)[C@@H]1NC(=O)[C@H](Cc2ccc(O)cc2)NC(=O)[C@H](Cc2ccc(O)cc2)NC(=O)[C@H](CC(N)=O)NC(=O)[C@H](Cc2c[nH]c3ccccc23)N(C)C(=O)[C@H](C(C)C)NC(=O)[C@H](Cc2ccccc2)N(C)C(=O)[C@H](C(C)C)NC(=O)[C@H](C)NC(=O)CSC[C@@H](C(=O)NCCOCCOCCOCCOCCOCCOCCOCCOCCOCCOCCOCCOCCC(=O)N[C@@H](CCCCNC(=O)C2CCC(CN3C(=O)C=CC3=O)CC2)C(N)=O)NC(=O)[C@H](Cc2ccc(O)cc2)N(C)C(=O)[C@H](Cc2ccc(O)cc2)NC(=O)[C@H](CCCNC(=N)N)NC(=O)[C@H](CCCNC(=N)N)NC(=O)[C@H]([C@@H](C)CC)NC1=O (some centres unmarked) [compound 183]
Kd (hTfR binding by SPR, hTfR No. 894 variant peptides, linker-added peptides and payload conjugates (Table 2), read-out: KD value obtained from the SPR measurement): 1 to 100 nM

Compound: CC[C@H](C)[C@@H]1NC(=O)[C@H](Cc2ccc(O)cc2)NC(=O)[C@H](Cc2ccc(O)cc2)NC(=O)[C@H](CC(N)=O)NC(=O)[C@H](Cc2c[nH]c3ccccc23)NC(=O)[C@H](C(C)C)NC(=O)[C@H](Cc2ccccc2)NC(=O)[C@H](C(C)C)NC(=O)[C@H](C)NC(=O)CSC[C@@H](C(N)=O)NC(=O)[C@H](Cc2ccc(O)cc2)N(C)C(=O)[C@H](CCC(=O)O)NC(=O)[C@H](CCCNC(=N)N)NC(=O)[C@H](CCCNC(=N)N)NC(=O)[C@H]([C@@H](C)CC)NC1=O [compound 259]
Kd (binding to hTfR by SPR, Table 2 peptides, read-out: KD value (SPR) class): 1 to 100 nM

Compound: CC[C@H](C)[C@@H]1NC(=O)[C@H](Cc2ccc(OC)cc2)NC(=O)[C@H](Cc2ccc(O)cc2)NC(=O)[C@H](CC(N)=O)NC(=O)[C@H](Cc2c[nH]c3ccccc23)N(C)C(=O)[C@H](C(C)C)NC(=O)[C@H](Cc2cccc(Cl)c2)N(C)C(=O)[C@H](CCC(=O)O)NC(=O)[C@H](C)NC(=O)CSC[C@@H](C(N)=O)NC(=O)[C@H](Cc2ccc(O)cc2)N(C)C(=O)[C@H](Cc2ccccc2)NC(=O)[C@@H](CCCNC(=N)N)NC(=O)[C@H](CCCCN)NC(=O)[C@H]([C@@H](C)CC)NC1=O [compound 228] ({CH2CO}-AE[NMePhe(3-Cl)]V[NMeW]NYY(Me)IIK[dR]F[NMeY]C-NH2; thioether N-15)
Kd (SPR, peptides, linker-added peptides and FITC conjugates, Patent ID 203-230, read-out: KD): 1 to 100 nM

Compound: CC[C@H](C)[C@@H]1NC(=O)[C@H](Cc2ccc(O)cc2)NC(=O)[C@H](Cc2ccc(O)cc2)NC(=O)[C@H](CC(N)=O)NC(=O)[C@H](Cc2c[nH]c3ccccc23)NC(=O)[C@H](C(C)C)NC(=O)[C@H](Cc2ccccc2)NC(=O)[C@H](C(C)C)NC(=O)[C@H](C)NC(=O)CSC[C@@H](C(=O)NCCOCCOCCOCCOCCOCCOCCOCCOCCOCCOCCOCCOCCC(=O)N[C@@H](CCCCNC(=O)c2ccc(-c3c4ccc(=O)cc-4oc4cc(O)ccc34)c(C(=O)O)c2)C(N)=O)NC(=O)[C@H](Cc2c[nH]cn2)N(C)C(=O)[C@H](CO)NC(=O)[C@H](CCCNC(=N)N)NC(=O)[C@H](Cc2ccccc2)NC(=O)[C@H](CCCNC(=N)N)NC(=O)[C@H](CC(=O)O)NC(=O)[C@H]([C@@H](C)CC)NC1=O [compound 149] ({CH2CO}-AVFVWNYYIIDRFRS[NMeH]C[PEG12]K(X2)-NH2; thioether N-17)
Kd (SPR, linker and payload (FITC, VivoTag) conjugates, read-out: KD): 1 to 100 nM

Compound: CC[C@H](C)[C@@H]1NC(=O)[C@H](Cc2ccc(OC)cc2)NC(=O)[C@H](Cc2ccc(O)cc2)NC(=O)[C@H](CC(N)=O)NC(=O)[C@H](Cc2c[nH]c3ccccc23)NC(=O)[C@H](C(C)C)NC(=O)[C@H](Cc2cccc(Cl)c2)N(C)C(=O)[C@H](C(C)C)NC(=O)[C@H](C)NC(=O)CSC[C@@H](C(=O)NCC(=O)NCC(=O)N[C@@H](CO)C(=O)NCC(=O)N[C@@H](CO)C(=O)NCC(=O)N[C@@H](CCCCN=[N+]=[N-])C(N)=O)NC(=O)[C@H](Cc2ccc(O)cc2)N(C)C(=O)[C@H](Cc2ccccc2)NC(=O)[C@@H](CCCNC(=N)N)NC(=O)[C@H](CCCCN)NC(=O)[C@H]([C@@H](C)CC)NC1=O [compound 314] ({CH2CO}-AV[NMePhe(3-Cl)]VWNYY(Me)IIK[dR]F[NMeY]CGGSGSG[Lys(N3)]-NH2; thioether N-15; C-terminus assumed)
Kd [1]: 1 to 100 nM

Continued, values first:

Kd [1]: 1 to 100 nM
Compound: CC[C@H](C)[C@@H]1NC(=O)[C@H](Cc2ccc(OC)cc2)NC(=O)[C@H](Cc2ccc(O)cc2)NC(=O)[C@H](CC(N)=O)NC(=O)[C@H](Cc2c[nH]c3ccccc23)N(C)C(=O)[C@H](C(C)C)NC(=O)[C@H](Cc2cccc(Cl)c2)N(C)C(=O)[C@H](C(C)C)NC(=O)[C@H](C)NC(=O)CSC[C@@H](C(=O)NCCOCCOCCOCCOCCC(N)=O)NC(=O)[C@H](Cc2ccc(O)cc2)N(C)C(=O)[C@H](Cc2ccccc2)NC(=O)[C@@H](CCCNC(=N)N)NC(=O)[C@H](CCCNC(=N)N)NC(=O)[C@H](CCN)NC1=O [compound 337] ({CH2CO}-AV[NMePhe(3-Cl)]V[NMeW]NYY(Me)I[Dab]R[dR]F[NMeY]C[PEG4]-NH2; thioether N-15)

Kd (SPR, hTfR, class symbols A-D, read-out: KD (column without head, continuation of the table series)): 1 to 100 nM
Compound: CC[C@H](C)[C@@H]1NC(=O)[C@H](Cc2ccc(O)cc2)NC(=O)[C@H](Cc2ccc(O)cc2)NC(=O)[C@H](CC(N)=O)NC(=O)[C@H](Cc2c[nH]c3ccccc23)NC(=O)[C@H](C(C)C)NC(=O)[C@H](Cc2ccccc2)N(C)C(=O)[C@H](C(C)C)NC(=O)[C@H](C)NC(=O)CSC[C@@H](C(=O)NCC(=O)NCCOCCOCCOCCOCCOCCOCCOCCOCCOCCOCCOCCOCCC(=O)N[C@@H](CCCCN=[N+]=[N-])C(N)=O)NC(=O)[C@H](Cc2ccc(O)cc2)N(C)C(=O)[C@H](Cc2ccc(O)cc2)NC(=O)[C@H](CCCNC(=N)N)NC(=O)[C@H](CCCNC(=N)N)NC(=O)[C@H]([C@@H](C)CC)NC1=O [compound 501]

Kd [2]: 1 to 100 nM
Compound: CC[C@H](C)[C@@H]1NC(=O)[C@H](Cc2ccc(O)cc2)NC(=O)[C@H](Cc2ccc(O)cc2)NC(=O)[C@H](CC(N)=O)NC(=O)[C@H](Cc2c[nH]c3ccccc23)N(C)C(=O)[C@H](C(C)C)NC(=O)[C@H](Cc2cccc(Cl)c2)N(C)C(=O)[C@@H]2CCCC(=O)NCCCC[C@H](NC(=O)[C@H]([C@@H](C)CC)NC1=O)C(=O)N[C@@H](CCCNC(=N)N)C(=O)N[C@@H](Cc1ccc(O)cc1)C(=O)N(C)[C@@H](Cc1ccc(O)cc1)C(=O)N[C@H](C(N)=O)CSCC(=O)N[C@@H](C)C(=O)N2 [compound 409]

Kd [2]: 1 to 100 nM
Compound: CC[C@H](C)[C@@H]1NC(=O)[C@H](Cc2ccc(OC)cc2)NC(=O)[C@H](Cc2ccc(O)cc2)NC(=O)[C@H](CC(N)=O)NC(=O)[C@H](Cc2c[nH]c3ccccc23)N(C)C(=O)[C@H](C(C)C)NC(=O)[C@H](Cc2cccc(Cl)c2)N(C)C(=O)[C@H](C(C)C)NC(=O)[C@H](C)NC(=O)CSC[C@@H](C(=O)NCCOCCOCCOCCOCCC(N)=O)NC(=O)[C@H](Cc2ccc(O)cc2)N(C)C(=O)[C@H](Cc2ccccc2)NC(=O)[C@@H](CCCNC(=N)N)NC(=O)[C@H](CN)NC(=O)[C@H]([C@@H](C)CC)NC1=O [compound 365] ({CH2CO}-AV[NMePhe(3-Cl)]V[NMeW]NYY(Me)II[Dap][dR]F[NMeY]C[PEG4]-NH2; thioether N-15)

Kd [2]: 1 to 100 nM
Compound: CC[C@H](C)[C@@H]1NC(=O)[C@H](Cc2ccc(OC)cc2)NC(=O)[C@H](Cc2ccc(O)cc2)NC(=O)[C@H](CC(N)=O)NC(=O)[C@H](Cc2c[nH]c3ccccc23)N(C)C(=O)[C@H](C(C)C)NC(=O)[C@H](Cc2cccc(Cl)c2)N(C)C(=O)[C@H](C(C)C)NC(=O)[C@H](C)NC(=O)CSC[C@@H](C(=O)NCCOCCOCCOCCOCCC(N)=O)NC(=O)[C@H](Cc2ccc(O)cc2)N(C)C(=O)[C@H](Cc2ccccc2)NC(=O)[C@@H](CCCNC(=N)N)NC(=O)[C@H](CCN)NC(=O)[C@H]([C@@H](C)CC)NC1=O [compound 366] ({CH2CO}-AV[NMePhe(3-Cl)]V[NMeW]NYY(Me)II[Dab][dR]F[NMeY]C[PEG4]-NH2; thioether N-15)
